No end group written: not given here.
Tests used:
[1] = test system: Candida albicans biofilm; experiment: Antibiofilm assay (crystal violet); format: cell-based; conditions: C. albicans, 570 nm; for MBEC: biofilm eradication; for MBIC: biofilm prevention
Protocol: (§1) Biofilms of the aforementioned microbes were allowed to form in microtiter plates under respective culture conditions in the absence (eradication) or presence (prevention) of AMPs. After incubation, the culture supernatant was discarded, and each well was gently rinsed to remove planktonic bacteria. Biofilms were fixed with methanol and stained with 0.1% crystal violet for 20 min; then the dye bound to the cells was resolubilized with ethanol, and the absorbance of the solution was evaluated at 570 nm using a microplate reader ([Abouelhassan et al., 2017]).

[2] = test system: S. aureus; experiment: In vivo antimicrobial assay, skin infection mouse model; conditions: neutropenic mice, s.c. 100 μl of 1.0 × 10^8 CFU⋅ml^–1 S. aureus; 100 μl AMP at MIC s.c. daily from 12 h post-infection; day 4; vs control
Protocol: (§2) In vivo antimicrobial activities of the designed AMPs were examined in neutropenic mice following subcutaneous inoculation of 100 μl of 1.0 × 10^8 CFU⋅ml^–1 E. coli, S. aureus, or C. albicans ([Lee et al., 2005]). At 12 h post-infection, 100 μl of AMPs at the respective MIC value was applied by subcutaneous injection each day. Mice were sacrificed on day 4, and the infected area was carefully excised and homogenized. The CFU count was determined after overnight incubation of the homogenate aliquots. All animal care and experiments were performed in compliance with institutional and government guidelines and were approved by the Peking Union Medical College Hospital Animal Care and Use Committee.

[3] = test system: E. coli; experiment: as above; conditions: neutropenic mice, s.c. 100 μl of 1.0 × 10^8 CFU⋅ml^–1 E. coli; 100 μl AMP at MIC s.c. daily from 12 h post-infection; day 4; vs control
Protocol: as §2

[4] = test system: Escherichia coli biofilm; experiment: Antibiofilm assay (crystal violet); format: cell-based; design: unit not given here; conditions: E. coli, 570 nm; for MBIC: biofilm formed in presence of AMPs (prevention); for MBEC: pre-formed biofilm (eradication)
Protocol: as §1

[5] = test system: Staphylococcus aureus biofilm; experiment: Antibiofilm assay (crystal violet); format: cell-based; design: unit not given here; conditions: S. aureus, 570 nm; for MBEC: biofilm eradication; for MBIC: biofilm prevention
Protocol: as §1

[6] = test system: C. albicans; experiment: In vivo antimicrobial assay, skin infection mouse model; conditions: neutropenic mice, s.c. 100 μl of 1.0 × 10^8 CFU⋅ml^–1 C. albicans; 100 μl AMP at MIC s.c. daily from 12 h post-infection; day 4; vs control
Protocol: as §2

| Substance | MBEC [1] | MBIC [1] | CFU count in infected skin [2] | CFU count in infected skin [3] | MBIC [4] | MBEC [4] | MBEC [5] | MBIC [5] | CFU count in infected skin [6] |
| --- | --- | --- | --- | --- | --- | --- | --- | --- | --- |
| KWKIFKKIEKVGRNIRDGIIKAGPAVQVVGQAATIYKGK [CecB, designed synthetic butterfly cecropin analog] | 32 | 16 | attenuate growth | attenuate growth | 2 | 8 | 16 | 2 | – |
| GKIPIGAIKKGAKAVGKGLKALNIASTAHDIYSFHHKKKKH [MorA, designed synthetic butterfly moricin analog] | 16 | 4 | – | – | 4 | 8 | 16 | 4 | suppress proliferation |
| GCVFYECIARCRQRGYLSGGYCTINGCQCL-NH2 (disulfide (positions not given here)) [DefB, designed synthetic butterfly defensin analog, C-terminally amidated] | – | – | – | – | 8 | 32 | 16 | 2 | – |
| DKLIGSCVWGAVNYTSDCNAECKRRGYKGGHCGSFANVNCWCET (disulfide (positions not given here)) [DefA, designed synthetic butterfly defensin analog] | – | – | – | – | 8 | 32 | 16 | 4 | – |
